From patent US8846698B2, “Pyrrolo[2,3-d]pyrimidine tropomysin-related kinase inhibitors” (Pfizer Limited, priority 2011, dated 2014)
Like-named read-outs stand apart in the source and are kept apart here.

Experiments:
TRKA [1] = molecular target: T1, TRKA (Homo sapiens (Human), UniProt P04629); assay: Isolated TRK enzyme assay (HTRF KinEASE-TK), TRKA; assay type: biochemical; settings: isolated TRKA enzyme; read-out: TrkA enzyme potency
Target sequence in this assay (P04629 441-796): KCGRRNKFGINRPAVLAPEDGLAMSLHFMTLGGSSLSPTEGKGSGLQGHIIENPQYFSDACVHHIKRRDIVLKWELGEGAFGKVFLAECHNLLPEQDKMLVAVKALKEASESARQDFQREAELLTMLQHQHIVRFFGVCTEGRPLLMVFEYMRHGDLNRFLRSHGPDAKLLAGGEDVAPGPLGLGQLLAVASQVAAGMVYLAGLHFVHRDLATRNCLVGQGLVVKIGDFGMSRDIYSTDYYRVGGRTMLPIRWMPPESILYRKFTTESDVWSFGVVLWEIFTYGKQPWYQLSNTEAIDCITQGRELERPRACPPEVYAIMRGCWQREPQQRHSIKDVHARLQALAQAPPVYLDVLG

TRKB [2] = molecular target: T2, TRKB (Homo sapiens (Human), UniProt Q16620); assay: biochemical
TRKA [3] = molecular target: T1, TRKA; assay: Cell based DiscoveRx PathHunter antagonist assay, TRKA cell line; settings: read-out: TrkA cell potency
Description: (§1) After the Detection Reagent addition, plates are covered and incubated at room temperature for 60 minutes. […] Test compound data are expressed as percentage inhibition defined by HPE and ZPE values for each plate. Percentage inhibition in the presence of test compound is plotted against compound concentration on a log scale to determine an IC50 from the resultant sigmoid curve. Cell Based Assays were carried out using Cell lines from DiscoveRx utilising their PathHunter technology and reagents in an antagonist assay:
(§2) The assays are based upon DiscoveRx's proprietary Enzyme Fragment Complementation (EFC) technology. In the case of the TRK cell lines, the enzyme acceptor (EA) protein is fused to a SH2 protein and the TRK receptor of interest has been tagged with a Prolink tag.
(§3) Upon neurotrophin binding, the TRK receptor becomes phosphorylated, and the tagged SH2 protein binds.
(§4) This means that the IC50 is a good measure of affinity and should be unaffected by concentration neurotrophin stimulant.
(§5) Cryopreserved PathHunter cells are used from either in-house produced batches or bulk batches bought directly from DiscoveRx. Cryopreserved cells are resuscitated, spun 1000 rpm for 4 min to remove freezing media, and resuspended in MEM+0.5% horse serum (both Invitrogen) to 5e^5 cells/ml. The cells are then plated using a Multidrop into Greiner white tissue culture treated plates at 20 ul/well and incubated for 24 h at 37° C., 5% CO2, high humidity. On the day of the assay, the cell plates are allowed to cool to room temperature for 30 min prior to the assay.
(§6) Plates containing 1 ul of serially diluted compound, standard and HPE/ZPE are diluted 1/66 in assay buffer (PBS minus Ca^2+, minus Mg^2+ with 0.05% pluronic F127) using a Wellmate. […] The plates are left at room temperature for a further 2 hours before addition of 10 ul of the DiscoveRx PathHunter detection reagent (made up by adding 1 part Galacton Star, 5 parts Emerald II and 19 parts Cell Assay Buffer as per the manufacturer's instructions).
(§7) After reagent addition, plates are covered and incubated at room temperature for 60 minutes. Luminescence signal is read using an Envision. Test compound data are expressed as percentage inhibition defined by HPE and ZPE values for each plate. Percentage inhibition in the presence of test compound is plotted against compound concentration on a log scale to determine an […] from the resultant sigmoid curve.
Target sequence in this assay (P04629 33-796): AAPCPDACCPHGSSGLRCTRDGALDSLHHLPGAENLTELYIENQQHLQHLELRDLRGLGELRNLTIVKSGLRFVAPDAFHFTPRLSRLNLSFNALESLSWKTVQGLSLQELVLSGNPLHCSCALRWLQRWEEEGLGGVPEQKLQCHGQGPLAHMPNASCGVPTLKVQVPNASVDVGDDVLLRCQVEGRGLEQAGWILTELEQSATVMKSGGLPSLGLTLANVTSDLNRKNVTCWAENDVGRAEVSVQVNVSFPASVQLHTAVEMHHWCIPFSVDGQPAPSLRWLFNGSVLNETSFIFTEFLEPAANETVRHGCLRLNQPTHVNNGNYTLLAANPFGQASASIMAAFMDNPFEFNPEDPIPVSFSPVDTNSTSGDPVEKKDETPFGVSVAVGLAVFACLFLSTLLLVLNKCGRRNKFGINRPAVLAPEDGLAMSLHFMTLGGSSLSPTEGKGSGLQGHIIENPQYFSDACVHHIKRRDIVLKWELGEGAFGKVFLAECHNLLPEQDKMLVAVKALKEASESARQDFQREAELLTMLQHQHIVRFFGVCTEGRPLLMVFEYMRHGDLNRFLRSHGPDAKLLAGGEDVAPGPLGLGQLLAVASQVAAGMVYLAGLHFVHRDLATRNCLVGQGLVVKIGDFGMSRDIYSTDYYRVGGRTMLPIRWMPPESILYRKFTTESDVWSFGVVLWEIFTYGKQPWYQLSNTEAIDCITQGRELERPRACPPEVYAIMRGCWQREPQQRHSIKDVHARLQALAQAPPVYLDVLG

TRKB [4] = molecular target: T2, TRKB; assay: cell-based; settings: TrkB cell potency, TRKB PathHunter cell line
Description: as §1, §2, §3, §4, §5, §6, §7

TRKC = TRKC (Homo sapiens (Human), UniProt Q16288); assay: Cell based DiscoveRx PathHunter antagonist assay, TRKC cell line; settings: read-out: TrkC cell potency
Description: as §1, §2, §3, §4, §5, §6, §7

MDR1 = MDR1 (Homo sapiens (Human), UniProt P08183); assay: MDCK-MDR1 assay (in vitro brain penetration); assay type: in vitro ADME; settings: for Papp B→A / Papp A→B: human; for Papp B→A: read-out: MDCK MDR1 Papp BA; for Papp A→B / MDCK MDR1 Papp AB: MDCK-MDR1, A to B; for Papp A→B: read-out: MDCK MDR1 Papp AB
Source text: MDCK-MDR1: MDCK-MDR1 data were collected according to the method described in “Are MDCK Cells Transfected with the Human MDR1 Gene a Good Model of the Human Intestinal Mucosa?”
http://www.springerlink.com/content/qfhqlqbr4fnp3 khf/fulltext.pdf

[5] = isolated TRKB enzyme, read-out: TrkB enzyme potency

T2 sequence (Q16620 32-822 limits assumed): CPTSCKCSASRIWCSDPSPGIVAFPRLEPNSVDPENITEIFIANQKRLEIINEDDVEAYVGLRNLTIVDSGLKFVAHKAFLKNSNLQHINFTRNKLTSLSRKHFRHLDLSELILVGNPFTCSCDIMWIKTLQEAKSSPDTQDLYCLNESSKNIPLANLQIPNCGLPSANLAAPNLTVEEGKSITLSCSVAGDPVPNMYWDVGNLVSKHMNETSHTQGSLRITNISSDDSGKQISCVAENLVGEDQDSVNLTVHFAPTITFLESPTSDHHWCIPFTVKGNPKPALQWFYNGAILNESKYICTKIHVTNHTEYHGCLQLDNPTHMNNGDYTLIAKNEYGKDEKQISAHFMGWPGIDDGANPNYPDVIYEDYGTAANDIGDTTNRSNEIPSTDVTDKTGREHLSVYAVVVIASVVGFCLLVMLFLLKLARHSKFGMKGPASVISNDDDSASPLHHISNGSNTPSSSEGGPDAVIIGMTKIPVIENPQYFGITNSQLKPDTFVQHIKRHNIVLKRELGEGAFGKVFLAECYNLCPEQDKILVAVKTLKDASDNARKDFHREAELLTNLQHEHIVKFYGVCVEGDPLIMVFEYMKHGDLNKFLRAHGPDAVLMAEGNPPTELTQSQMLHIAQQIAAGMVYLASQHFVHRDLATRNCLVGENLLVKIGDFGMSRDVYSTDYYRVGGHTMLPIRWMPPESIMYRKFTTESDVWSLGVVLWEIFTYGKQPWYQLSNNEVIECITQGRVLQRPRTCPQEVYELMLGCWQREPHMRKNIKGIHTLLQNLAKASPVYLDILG
MDR1, sequence (P08183 whole entry): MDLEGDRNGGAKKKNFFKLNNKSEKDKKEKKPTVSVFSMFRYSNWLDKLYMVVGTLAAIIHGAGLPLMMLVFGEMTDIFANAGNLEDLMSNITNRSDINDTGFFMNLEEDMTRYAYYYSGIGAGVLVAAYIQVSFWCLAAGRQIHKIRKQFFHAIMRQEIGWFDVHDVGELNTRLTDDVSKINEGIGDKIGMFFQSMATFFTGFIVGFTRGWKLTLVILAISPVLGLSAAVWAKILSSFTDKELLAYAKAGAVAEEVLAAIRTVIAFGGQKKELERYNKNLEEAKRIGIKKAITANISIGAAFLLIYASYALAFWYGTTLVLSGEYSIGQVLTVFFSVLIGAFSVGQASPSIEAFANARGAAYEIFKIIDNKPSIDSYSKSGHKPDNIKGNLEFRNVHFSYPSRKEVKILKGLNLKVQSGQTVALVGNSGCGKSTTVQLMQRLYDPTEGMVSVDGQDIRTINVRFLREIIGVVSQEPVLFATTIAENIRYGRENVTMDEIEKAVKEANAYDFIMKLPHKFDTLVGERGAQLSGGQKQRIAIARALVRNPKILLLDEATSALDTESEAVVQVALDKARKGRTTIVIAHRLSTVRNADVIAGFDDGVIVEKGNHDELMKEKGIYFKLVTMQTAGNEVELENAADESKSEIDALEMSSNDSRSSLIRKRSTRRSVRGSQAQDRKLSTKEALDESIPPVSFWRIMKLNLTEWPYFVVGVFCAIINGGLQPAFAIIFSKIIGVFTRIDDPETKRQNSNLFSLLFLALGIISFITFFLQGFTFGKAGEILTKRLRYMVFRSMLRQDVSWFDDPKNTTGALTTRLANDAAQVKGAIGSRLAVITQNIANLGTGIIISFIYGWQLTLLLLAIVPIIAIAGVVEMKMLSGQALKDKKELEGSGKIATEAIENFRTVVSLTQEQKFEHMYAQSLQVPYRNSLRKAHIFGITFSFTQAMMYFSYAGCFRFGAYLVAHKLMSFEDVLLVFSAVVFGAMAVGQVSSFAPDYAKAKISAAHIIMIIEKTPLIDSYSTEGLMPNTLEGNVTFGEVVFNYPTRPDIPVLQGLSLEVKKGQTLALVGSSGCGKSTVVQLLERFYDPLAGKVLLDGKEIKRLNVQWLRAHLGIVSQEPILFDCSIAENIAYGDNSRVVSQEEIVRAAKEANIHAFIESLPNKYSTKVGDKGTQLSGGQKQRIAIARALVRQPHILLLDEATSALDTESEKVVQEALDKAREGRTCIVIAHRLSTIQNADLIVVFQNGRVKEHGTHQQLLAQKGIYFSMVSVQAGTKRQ
TRKC, sequence (Q16288 32-839): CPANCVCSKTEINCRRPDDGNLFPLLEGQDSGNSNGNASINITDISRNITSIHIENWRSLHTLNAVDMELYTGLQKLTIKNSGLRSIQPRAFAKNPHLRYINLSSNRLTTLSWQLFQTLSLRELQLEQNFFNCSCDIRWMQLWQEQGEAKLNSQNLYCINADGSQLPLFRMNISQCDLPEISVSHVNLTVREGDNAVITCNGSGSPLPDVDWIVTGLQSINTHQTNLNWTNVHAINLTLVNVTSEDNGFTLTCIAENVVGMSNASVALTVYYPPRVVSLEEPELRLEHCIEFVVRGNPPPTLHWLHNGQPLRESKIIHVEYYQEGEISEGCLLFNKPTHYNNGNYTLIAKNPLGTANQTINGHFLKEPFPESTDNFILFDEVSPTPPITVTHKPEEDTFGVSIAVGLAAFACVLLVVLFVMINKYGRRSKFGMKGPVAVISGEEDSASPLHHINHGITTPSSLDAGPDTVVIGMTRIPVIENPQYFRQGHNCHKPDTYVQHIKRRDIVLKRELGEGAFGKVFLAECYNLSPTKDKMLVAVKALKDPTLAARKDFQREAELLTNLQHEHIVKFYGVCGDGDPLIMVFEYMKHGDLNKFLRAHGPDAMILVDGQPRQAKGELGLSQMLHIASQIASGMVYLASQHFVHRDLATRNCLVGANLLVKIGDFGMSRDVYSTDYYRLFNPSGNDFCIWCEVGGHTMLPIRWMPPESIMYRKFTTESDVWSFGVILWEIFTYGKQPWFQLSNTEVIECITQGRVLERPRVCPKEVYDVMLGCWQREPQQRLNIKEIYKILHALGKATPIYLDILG

Compound	IC50 (TRKA [1]) [µM]	IC50 (TRKB [2]; [5]) [µM]	IC50 (TRKA [3]) [µM]	IC50 (TRKB [4]) [µM]	IC50 (TRKC) [µM]	Papp B→A (MDR1; MDCK-MDR1, MDCK-MDR1, B to A) [×10⁻⁶ cm/s]	Papp A→B (MDR1) [×10⁻⁶ cm/s]	MDCK MDR1 Papp AB (MDR1) [×10⁻⁶ cm/s]	MDCK MDR1 Papp BA (MDR1; MDCK-MDR1, B to A) [×10⁻⁶ cm/s]	IC50 (TRKB [2]; TrkB enzyme potency) [µM]	Papp B→A (MDR1; MDCK-MDR1, B to A) [×10⁻⁶ cm/s]
CC(CO)n1cc(C(=O)c2cncc(NC(=O)Cc3ccc(Cl)cc3)c2)c2cnc(N)nc21 (single isomer, unassigned) [Example 34, N-(5-{[2-Amino-7-(2-hydroxy-1-methylethyl)-7H-pyrrolo[2,3-d]pyrimidin-5-yl]carbonyl}pyridin-3-yl)-2-(4-chlorophenyl)acetamide]	0.0036	0.2	0.023	0.025	0.013	11	< 1				
CC(CO)n1cc(C(=O)c2cncc(NC(=O)Cc3ccc(C(F)(F)F)cc3)c2)c2cnc(N)nc21 (single isomer, unassigned) [Example 36, N-(5-{[2-amino-7-(2-hydroxy-1-methylethyl)-7H-pyrrolo[2,3-d]pyrimidin-5-yl]carbonyl}pyridin-3-yl)-2-[4-(trifluoromethyl)phenyl]acetamide]	0.0045	0.303	0.011	0.013	0.013	12	< 1				
CC(CO)n1cc(C(=O)c2cncc(NC(=O)Cc3ccc(Cl)cc3)c2)c2cnc(N)nc21 (single isomer, unassigned) [Example 42, N-(5-{[2-amino-7-(2-hydroxy-1-methylethyl)-7H-pyrrolo[2,3-d]pyrimidin-5-yl]carbonyl}pyridin-3-yl)-2-(4-chlorophenyl)acetamide]	0.0038	0.191	0.044	0.027	0.013			<1	9.5		
CC(CO)n1cc(C(=O)c2cncc(NC(=O)Cc3ccc(C(F)(F)F)cc3)c2)c2cnc(N)nc21 (single isomer, unassigned) [Example 43, N-(5-{[2-amino-7-(2-hydroxy-1-methylethyl)-7H-pyrrolo[2,3-d]pyrimidin-5-yl]carbonyl}pyridin-3-yl)-2-[4-(trifluoromethyl)phenyl]acetamide]	0.0051	0.136	0.017	0.019	0.011			<1	13		
CC(C)(C)n1cc(C(=O)c2cncc(NC(=O)Cn3cc(C(F)(F)F)nn3)c2)c2cncnc21 [Example 2, N-{5-[(7-tert-butyl-7H-pyrrolo[2,3-d]pyrimidin-5-yl)carbonyl]pyridin-3-yl}-2-[4-(trifluoromethyl)-1H-1,2,3-triazol-1-yl]acetamide]	0.0084		0.0053	0.0039	0.0011		< 1			0.113	15
CC(C)(C)n1cc(C(=O)c2cncc(NC(=O)Cn3ccc(C(F)(F)F)n3)c2)c2cncnc21 [Example 5, N-{5-[(7-tert-butyl-7H-pyrrolo[2,3-d]pyrimidin-5-yl)carbonyl]pyridin-3-yl}-2-[3-(trifluoromethyl)-1H-pyrazol-1-yl]acetamide]	0.0026	0.073	0.0035	0.0036	0.002	14	1.5				
CC(C)(C)n1cc(C(=O)c2cncc(NC(=O)Cn3cc(C(F)(F)F)cn3)c2)c2cncnc21 [Example 8, N-{5-[(7-tert-butyl-7H-pyrrolo[2,3-d]pyrimidin-5-yl)carbonyl]pyridin-3-yl}-2-[4-(trifluoromethyl)-1H-pyrazol-1-yl]acetamide]	0.0024		0.0019	0.002	0.0023		1.8			0.015	15
Cc1cc(C(F)(F)F)nn1CC(=O)Nc1cncc(C(=O)c2cn([C@@H](C)CO)c3ncncc23)c1 [Example 10, N-[5-({7-[(1S)-2-Hydroxy-1-methylethyl]-7H-pyrrolo[2,3-d]pyrimidin-5-yl}carbonyl)pyridin-3-yl]-2-[5-methyl-3-(trifluoromethyl)-1H-pyrazol-1-yl]acetamide]	0.0057	0.078	0.03	0.018	0.018	14	< 1				
C[C@@H](CO)n1cc(C(=O)c2cncc(NC(=O)Cc3ccc(Cl)cc3)c2)c2cncnc21 [Example 11, 2-(4-chlorophenyl)-N-[5-({7-[(1S)-2-hydroxy-1-methylethyl]-7H-pyrrolo[2,3-d]pyrimidin-5-yl}carbonyl)pyridin-3-yl]acetamide]	0.0033		0.017	0.011	0.0066		< 1			0.197	23
C[C@@H](CO)n1cc(C(=O)c2cncc(NC(=O)Cc3ccc(Cl)cn3)c2)c2cncnc21 [Example 14, 2-(5-chloropyridin-2-yl)-N-[5-({7-[(1S)-2-hydroxy-1-methylethyl]-7H-pyrrolo[2,3-d]pyrimidin-5-yl}carbonyl)pyridin-3-yl]acetamide]	0.013	0.773	0.041	0.015	0.0048	21	< 1				
C[C@H](CO)n1cc(C(=O)c2cncc(NC(=O)Cc3ccc(Cl)cc3)c2)c2cncnc21 [Example 24, 2-(4-chlorophenyl)-N-[5-({7-[(1R)-2-hydroxy-1-methylethyl]-7H-pyrrolo[2,3-d]pyrimidin-5-yl}carbonyl)pyridin-3-yl]acetamide]	0.125		0.037	0.027	0.0089		< 1			0.427	10
CC(C)(CO)n1cc(C(=O)c2cncc(NC(=O)Cc3ccc(C(F)(F)F)cc3)c2)c2cncnc21 [Example 27, N-(5-{[7-(2-hydroxy-1,1-dimethylethyl)-7H-pyrrolo[2,3-d]pyrimidin-5-yl]carbonyl}pyridin-3-yl)-2-[4-(trifluoromethyl)phenyl]acetamide]	0.0028	0.055	0.0039	0.0054	0.0032	17	< 1				
CC(C)(CO)n1cc(C(=O)c2cncc(NC(=O)Cn3cc(C(F)(F)F)nn3)c2)c2cncnc21 [Example 32, N-(5-{[7-(2-hydroxy-1,1-dimethylethyl)-7H-pyrrolo[2,3-d]pyrimidin-5-yl]carbonyl}pyridin-3-yl)-2-[4-(trifluoromethyl)-1H-1,2,3-triazol-1-yl]acetamide]	0.009	0.423	0.087	0.059	0.018	3.4	< 1				
CC(C)(CO)n1cc(C(=O)c2cncc(NC(=O)Cc3ccc(C(F)(F)F)cc3)c2)c2cnc(N)nc21 [Example 48, N-(5-{[2-amino-7-(2-hydroxy-1,1-dimethylethyl)-7H-pyrrolo[2,3-d]pyrimidin-5-yl]carbonyl}pyridin-3-yl)-2-[4-(trifluoromethyl)phenyl]acetamide]	0.0017	0.04	0.0029	0.0036	0.0025	12	< 1				
